Measured values published in patent US11130766B2, “Deuterated thienopiperidine derivatives, manufacturing method, and application thereof” (JIANGSU TASLY DIYI PHARMACEUTICAL CO., LTD., priority 2015, dated 2021).
Like-named read-outs stand apart in the source and are kept apart here. Marks after values point to notes of the source that are not given here.

How the values were obtained:
esterase [1] = assay: Esterase hydrolysis rates of TSD-8 and clopidogrel bisulfate, in vitro incubation in rat whole blood; assay type: in vitro ADME; design: sample test results (concentration) Num. 1 / sample test results (concentration) Num. 2 / sample test results (concentration) Num. 3 / sample test results (concentration) Mean: unit not given here; settings: for sample test results (concentration) Mean / sample test results (concentration) Num. 1 / sample test results (concentration) Num. 2 / sample test results (concentration) Num. 3: rat whole blood, 37° C., 30 μg/mL
[2] = test system: ADP induced platelet aggregation; assay: ADP induced platelet aggregation, maximum aggregation rate after administration to rats; assay type: in vivo, Wistar male rats; design: unit not given here; settings: 3 mg/kg
Method: Addition of small dose of ADP (concentration less than 0.9 μmol/L) into the platelet suspension could lead to rapid platelet aggregation, followed by quick disaggregation; if moderate dose of ADP (about 1.0 μmol/L) was added, then the second irreversible aggregation phase appeared not long after the end of the first aggregation phase and the disaggregation. The maximum aggregation rate of the irreversible aggregation phase was used to evaluate the effect of the test samples on the function of blood coagulation.
Animals: Wistar male rats, weighing 230-250 g, were purchased from Vital River Laboratory Animal Technology Co., Ltd.
Reagent: ADP, Sigma Corporation.
Test samples: 16 test samples were provided by the Tasly Group; referred to China patent application 201310428052.4 for manufacturing method of TSC-1˜4 and TSC-6˜9.
Dose of administration: the test samples were suspended with 0.25% CMC, administered 3 mg/kg weight, volume of administration: 2 mL.
2 Hours after administration, the rats were anesthetized with pentobarbital sodium, and blood was drawn from the abdominal aorta, anticoagulated with sodium citrate with a ratio of 1:9, and centrifuged to obtain the platelet-rich plasma and platelet-poor plasma, with the mixed ratio of the platelet-poor plasma to platelet-rich plasma=3:1.

Rat Tail Bleeding Model = test system: Rat Tail Bleeding Model
Method: genus, strain SD rat, • Provider: Slac • Weight: 250-350 g • Sex: male • Animal number: 30
Experimental Method: • The animals were allowed adapt to the environment after arrival for 1 week and fasted for 16 hours prior to the experiment. • The tail bleeding time started to be recorded 2 h after oral administration of the test compounds and 4 h after oral administration of clopidogrel. • The rats were anesthetized with pentobarbital sodium (50 mg/kg, ip) 10 min prior to the recording of the tail bleeding time, after the rat was completely anesthetized and reaching the detection time, the tail was cut at 1.3 mm from the rat tail-tip with a scissor and perpendicularly immerged into a saline at 37° C. Timing recording was not started until the blood flow appeared. • The timing recording was stopped when the bleeding time interval was longer than 20 seconds. The maximum observation time for the blood flow was set for 40 minutes. If it was longer than 40 minutes, the timing recording was stopped and the time was recorded as 40 minutes.

[3] = test system: Rat Arteriovenous Thrombus Loop Model
From the text: genus, strain: SD rat, • Provider: Slac • Weight: 250-350 g • Sex: male • Animal number: 30
Apparatus and Materials • Swab, dry tampon, alcohol pad, anerdian tampon. • Surgical scissor, ophthalmic forceps, hemostatic forceps, microsurgical scissor, microsurgical forceps, artery clamps. • 3-0 surgical suture, thick PE tube (I.D.*O.D.=1.14 mm*1.63 mm, 8 cm long), think PE tube (I.D.*O.D.=0.72 mm*1.22 mm, 6 cm long). • Surgical board, binding rope, timer, precise electronic balance, weighing paper. • Syringe, normal saline.
7. Experimental Method • After arrival, the animals were let adapt to the environment for 1 week and fasted for 16 hours prior to the test. • The arteriovenous blood loop circulation was started 2 h after oral administration of the test compounds and 4 h after oral administration of clopidogrel. • The rats were anesthetized with pentobarbital sodium (50 mg/kg, ip) 15 min before the arteriovenous blood loop circulation was started. • The left external jugular vein and the right carotid artery were separated and inserted with thin PE tubes respectively. • Two PE tubes were connected with another thick PE tube with a length of 8 cm to form a circulation passage. There's a 6 cm surgical suture (3-0) in the thick PE tube. • 15 min after the circulation passage was opened, the blood flow was blocked, the filament was taken out and weighed after the blood was sucked out. The thrombus weight was obtained after subtraction of the weight of the filament itself.

esterase [4] = settings: for sample test results (concentration) Mean / sample test results (concentration) Num. 1 / sample test results (concentration) Num. 2 / sample test results (concentration) Num. 3: rat whole blood, 37° C., 30 μg/mL
Method: The hydrolysis rates of formula TSD-6 and clopidogrel bisulfate in the rat whole blood were determined by employing the in vitro incubation method.
3 mL of the rat fresh whole blood was taken and placed in a glass test tube. 30 μg/mL of formula TSD-6 and clopidogrel bisulfate (prepared with saline) were added, with 3 parallel tests for each group. The test tubes were shocked at a constant temperature of 37° C., 100 μL of the mixture was taken out at fixed time points of 10 min, 20 min, 30 min, 40 min, 50 min, 60 min, 70 min, 80 min, 90 min, 100 min, 110 min, and 120 min, into which 900 μL of methanol was added to stop the reaction immediately, then 100 μL methanol/water (1:1, v/v) and 100 μL internal standard (diazepam, 100 ng/mL) were added sequentially. The mixture was centrifuged at 13000 rpm at low temperature for 10 min, the supernatant was transferred into another EP tube, and 20 μL of the supernatant was taken for sample injection.

[5] = ADP induced, rats, blood drawn 2 hours after administration
[6] = SD rat, 1.0 mg/kg oral gavage, 2 h after administration
[7] = SD rat, 1.0 mg/kg oral gavage, 2 h after administration, 15 min circulation

SMILES: [2H]C([2H])([2H])OC(=O)[C@H](c1ccccc1Cl)N1CCc2sc(OCOP(=O)(O)O)cc2C1 [TSD-8]
- hydrolysis rate in the rat whole blood (esterase [1]; compared with clopidogrel, FIG. 1): slower than that of clopidogrel
- sample test results (concentration) Mean (esterase [1]; 10 min): 391.50
- sample test results (concentration) Num. 1 (esterase [1]; 10 min): 531
- sample test results (concentration) Num. 2 (esterase [1]; 10 min): 252
- sample test results (concentration) Mean (esterase [1]; 20 min): 290.00
- sample test results (concentration) Num. 1 (esterase [1]; 20 min): 336
- sample test results (concentration) Num. 2 (esterase [1]; 20 min): 242
- sample test results (concentration) Num. 3 (esterase [1]; 20 min): 292
- sample test results (concentration) Mean (esterase [1]; 30 min): 275.33
- sample test results (concentration) Num. 1 (esterase [1]; 30 min): 255
- sample test results (concentration) Num. 2 (esterase [1]; 30 min): 291
- sample test results (concentration) Num. 3 (esterase [1]; 30 min): 280
- sample test results (concentration) Mean (esterase [1]; 40 min): 223.00
- sample test results (concentration) Num. 1 (esterase [1]; 40 min): 222
- sample test results (concentration) Num. 2 (esterase [1]; 40 min): 219
- sample test results (concentration) Num. 3 (esterase [1]; 40 min): 228
- sample test results (concentration) Mean (esterase [1]; 50 min): 101.67
- sample test results (concentration) Num. 1 (esterase [1]; 50 min): 112
- sample test results (concentration) Num. 2 (esterase [1]; 50 min): 103
- sample test results (concentration) Num. 3 (esterase [1]; 50 min): 90
- sample test results (concentration) Mean (esterase [1]; 60 min): 112.00
- sample test results (concentration) Num. 1 (esterase [1]; 60 min): 115
- sample test results (concentration) Num. 2 (esterase [1]; 60 min): 123
- sample test results (concentration) Num. 3 (esterase [1]; 60 min): 98
- sample test results (concentration) Mean (esterase [1]; 90 min): 74.63
- sample test results (concentration) Num. 1 (esterase [1]; 90 min): 76.3
- sample test results (concentration) Num. 2 (esterase [1]; 90 min): 77.4
- sample test results (concentration) Num. 3 (esterase [1]; 90 min): 70.2
- sample test results (concentration) Mean (esterase [1]; 100 min): 55.40
- sample test results (concentration) Num. 1 (esterase [1]; 100 min): 52.7
- sample test results (concentration) Num. 2 (esterase [1]; 100 min): 63.2
- sample test results (concentration) Num. 3 (esterase [1]; 100 min): 50.3
- sample test results (concentration) Mean (esterase [1]; 110 min): 47.90
- sample test results (concentration) Num. 1 (esterase [1]; 110 min): 45.7
- sample test results (concentration) Num. 2 (esterase [1]; 110 min): 51.5
- sample test results (concentration) Num. 3 (esterase [1]; 110 min): 46.5
- sample test results (concentration) Mean (esterase [1]; 120 min): 34.90
- sample test results (concentration) Num. 1 (esterase [1]; 120 min): 34.3
- sample test results (concentration) Num. 2 (esterase [1]; 120 min): 38.7
- sample test results (concentration) Num. 3 (esterase [1]; 120 min): 31.7
- Maximum Platelet Aggregation Rate [2, 5]: 16.3 ± 4.16

SMILES: COC(=O)[C@H](c1ccccc1Cl)N1CCc2sc(OP(=O)(O)O)cc2C1 [TSC-6]
- Tail Bleeding Time (Rat Tail Bleeding Model; [6]): 635 s
- Thrombus (mg) [3, 7]: 31.4* mg
- Maximum Platelet Aggregation Rate ([2]; rat, in vivo): 29.6 ± 5.33

SMILES: [2H]C([2H])([2H])OC(=O)[C@H](c1ccccc1Cl)N1CCc2sc(OCOP(=O)(OC(C)(C)C)OC(C)(C)C)cc2C1 [TSD-7]
- Maximum Platelet Aggregation Rate [2, 5]: 27.1 ± 6.21

SMILES: [2H]C([2H])([2H])OC(=O)[C@H](c1ccccc1Cl)N1CCc2sc(OP(=O)(OCC)OCC)cc2C1 [TSD-2]
- Maximum Platelet Aggregation Rate [2, 5]: 32.7 ± 5.33

SMILES: [2H]C([2H])([2H])OC(=O)[C@H](c1ccccc1Cl)N1CCc2sc(OP(=O)(O)O)cc2C1 [TSD-6]
- Tail Bleeding Time (s) (Rat Tail Bleeding Model; [6]): 1331* s
- anticoagulant effect (tail bleeding time) (Rat Tail Bleeding Model; rat tail bleeding model, 1 mg/kg oral): much better than that of the non-deuterated compound TSC-6 and analog I-1
- Thrombus (mg) [3, 7]: 18.4* mg
- weight of the thrombus formed ([3]; rat arteriovenous thrombus loop model, 1 mg/kg oral): much lower than that of the non-deuterated compound TSC-6 and analog I-1
- Maximum Platelet Aggregation Rate ([2]; rat, in vivo): 17.4 ± 5.13
- hydrolysis rate in the rat whole blood (esterase [4]; compared with clopidogrel, FIG. 2): significantly slower than that of clopidogrel
- sample test results (concentration) Mean (esterase [4]; 10 min): 389.7
- sample test results (concentration) Num. 1 (esterase [4]; 10 min): 486
- sample test results (concentration) Num. 2 (esterase [4]; 10 min): 287
- sample test results (concentration) Num. 3 (esterase [4]; 10 min): 396
- sample test results (concentration) Mean (esterase [4]; 20 min): 315.3
- sample test results (concentration) Num. 1 (esterase [4]; 20 min): 306
- sample test results (concentration) Num. 2 (esterase [4]; 20 min): 345
- sample test results (concentration) Num. 3 (esterase [4]; 20 min): 295
- sample test results (concentration) Mean (esterase [4]; 30 min): 244.3
- sample test results (concentration) Num. 1 (esterase [4]; 30 min): 246
- sample test results (concentration) Num. 2 (esterase [4]; 30 min): 223
- sample test results (concentration) Num. 3 (esterase [4]; 30 min): 264
- sample test results (concentration) Mean (esterase [4]; 40 min): 217.7
- sample test results (concentration) Num. 1 (esterase [4]; 40 min): 232
- sample test results (concentration) Num. 2 (esterase [4]; 40 min): 213
- sample test results (concentration) Num. 3 (esterase [4]; 40 min): 208
- sample test results (concentration) Mean (esterase [4]; 50 min): 172.0
- sample test results (concentration) Num. 1 (esterase [4]; 50 min): 196
- sample test results (concentration) Num. 2 (esterase [4]; 50 min): 153
- sample test results (concentration) Num. 3 (esterase [4]; 50 min): 167
- sample test results (concentration) Mean (esterase [4]; 60 min): 132.3
- sample test results (concentration) Num. 1 (esterase [4]; 60 min): 115
- sample test results (concentration) Num. 2 (esterase [4]; 60 min): 134
- sample test results (concentration) Num. 3 (esterase [4]; 60 min): 148
- sample test results (concentration) Mean (esterase [4]; 90 min): 97.50
- sample test results (concentration) Num. 1 (esterase [4]; 90 min): 85.3
- sample test results (concentration) Num. 2 (esterase [4]; 90 min): 112
- sample test results (concentration) Num. 3 (esterase [4]; 90 min): 95.2
- sample test results (concentration) Mean (esterase [4]; 100 min): 72.57
- sample test results (concentration) Num. 1 (esterase [4]; 100 min): 84.7
- sample test results (concentration) Num. 2 (esterase [4]; 100 min): 71.8
- sample test results (concentration) Num. 3 (esterase [4]; 100 min): 61.2
- sample test results (concentration) Mean (esterase [4]; 110 min): 54.63
- sample test results (concentration) Num. 1 (esterase [4]; 110 min): 48.1
- sample test results (concentration) Num. 2 (esterase [4]; 110 min): 59.1
- sample test results (concentration) Num. 3 (esterase [4]; 110 min): 56.7
- sample test results (concentration) Mean (esterase [4]; 120 min): 25.83
- sample test results (concentration) Num. 1 (esterase [4]; 120 min): 24.5
- sample test results (concentration) Num. 2 (esterase [4]; 120 min): 28.4
- sample test results (concentration) Num. 3 (esterase [4]; 120 min): 24.6

SMILES: [2H]C([2H])([2H])OC(=O)[C@H](c1ccccc1Cl)N1CCc2sc(OP(=O)(OC(C)C)OC(C)C)cc2C1 [TSD-3]
- Maximum Platelet Aggregation Rate [2, 5]: 28.4 ± 3.27

SMILES: [2H]C([2H])([2H])OC(=O)[C@H](c1ccccc1Cl)N1CCc2sc(OC(C)=O)cc2C1 [I-1]
- Tail Bleeding Time (Rat Tail Bleeding Model; [6]): 950 s
- Thrombus [3, 7]: 25.6 mg

SMILES: [2H]C([2H])([2H])OC(=O)[C@H](c1ccccc1Cl)N1CCc2sc(OP(=O)(OC)OC)cc2C1 [TSD-1]
- Maximum Platelet Aggregation Rate [2, 5]: 35.6 ± 3.35

SMILES: [2H]C([2H])([2H])OC(=O)[C@H](c1ccccc1Cl)N1CCc2sc(OP(=O)(Oc3ccccc3)Oc3ccccc3)cc2C1 [TSD-4]
- Maximum Platelet Aggregation Rate [2, 5]: 36.2 ± 4.16

SMILES: CC(=O)Oc1cc2c(s1)CCN(C(C(=O)C1CC1)c1ccccc1F)C2 (centres unmarked) [prasugrel, reference compound]
- Maximum Platelet Aggregation Rate [2, 5]: 20.72 ± 8.84
